{"source": "patent EP0248151A1", "about": "“Pantothenic acid as an antimutagenic agent” (SUNTORY LIMITED, priority 1983, dated 1984)", "key": {"[1]": {"test_system": "Salmonella typhimurium TA l00", "experiment": "Ames test (preincubation method), inactivation of mutagenicity of MNNG, without S9", "format": "cell-based", "procedure": "(§1) One of the methods for determining carcinogenicity that have recently been established is the Salmonella test (also known as the Ames test) that uses the requirement for histidine as an evaluation index (Ames, B.N. et al.: Mutation Res., Vol. 3l, 347, l975). […] Therefore, the present inventors chose to use the Ames test as a means for screening various compounds to discover cancer control substances.\n(§2) • (i) Method: The preincubation method shown in Sugimura & Nagao: Chemical Mutagens, Vol. 6, page 4l, l98l was used. • (ii) Microorganism: Histidine requiring Salmonella typhimurium strains TA l00 and TA 98 (hereunder TA l00 and St TA 98) were used. • (iii) Preparation of samples • a) MNNG: To MNNG samples (l µg/plate), coenzyme A was added in amounts of 0.0l µM, 0.l µM and l.0 µM/plate. • b) Benzo[a]pyrene: To benzo[a]pyrene samples (l0 µg/plate), coenzyme A was added in amounts of 0.0009, 0.009 and 0.09µM/plate. • (iv) Measuring mutagenicity\n(§3) To l00 µl of each of the samples prepared in (iii) a), 500 µl of l00 mM sodium phosphate buffer (pH 7.4) and l00 µl of a culture of St TA l00 were added. To l00 µl of each of the samples prepared in (iii) b), 500 µl of S9 mix (rat liver homogenate) and l00 µl of a culture of TA 98 were added. […] After incubation at 37°C for 48 hours, the number of colonies on the plates was counted as revertants. […]"}, "[2]": {"test_system": "Salmonella typhimurium TA 98", "experiment": "Ames test (preincubation method), inactivation of mutagenicity of benzo[a]pyrene, with S9 mix (rat liver homogenate)", "format": "cell-based", "procedure": "as §1, §2, §3"}, "[3]": {"test_system": "St TA l00 or St TA 98 strain", "experiment": "Ames test (preincubation method), inactivation of mutagenicity of carcinogens/mutagens by pantothenates, without S9", "format": "cell-based, Salmonella typhimurium", "procedure": "as §2\n• (i) Method: See Example l. • (ii) Microorganism: See Example l. • (iii) Preparation of samples • a) The carcinogenic or mutagenic substances used in Example 3 and their concentrations are listed in Table 5. [formula] • b) Adding pantothenates (Na and Ca salts) Pantothenates were added to each of the carcinogenic or mutagenic samples in amounts of 0, 0.005, 0.05, and 5.0 µM/plate. • (iv) Measuring mutagenicity To l00 µl of each of the samples prepared in (iii) a), 500 µl of l00 mM sodium phosphate buffer (pH 7.4) was added. Thereafter, l00 µl of a culture of St TA l00 or St TA 98 strain was added as indicated in Table 6. [formula] The respective mixtures were shaken for 20 minutes at 37°C. After adding 2.5 ml of a soft agar solution, the mixtures were spread on minimum glucose agar plates which had been supplemented with 0.l µM/plate of histidine for causing several […] of the cells. After incubation at 37°C for 48 hours, the number of colonies on the plates was counted as revertants."}}, "data": [{"molecule": "CC(C)(COP(=O)(O)OP(=O)(O)OC[C@H]1O[C@@H](n2cnc3c(N)ncnc32)[C@H](O)[C@@H]1OP(=O)(O)O)[C@@H](O)C(=O)NCCC(=O)NCCS", "note": "[Coenzyme A, coenzyme A]", "values": [{"measurement": "inhibition of the mutagenicity of MNNG", "setting": "[1]; 150 mols of coenzyme A added to 1 mol of MNNG", "result": "completely"}, {"measurement": "inactivation of the mutagenicity of benzo[a]pyrene", "setting": "[2]; 10 mols of coenzyme A added to 1 mol of benzo[a]pyrene", "result": "about 90%"}]}, {"molecule": "Cc1ncc(COP(=O)(O)O)c(C=O)c1O", "note": "[Pyridoxal-5′-phosphoric acid, pyridoxal-5′-phosphoric acid]", "values": [{"measurement": "inhibition of the mutagenicity of MNNG", "setting": "[1]; 150 mols of compound added to 1 mol of MNNG", "result": "about 50%"}, {"measurement": "inactivation of the mutagenicity of benzo[a]pyrene", "setting": "[2]; 25 mols of compound added to 1 mol of benzo[a]pyrene", "result": "about 80%"}]}, {"molecule": "CC(C)(CO)[C@@H](O)C(=O)NCCC(=O)[O-].[Na+]", "note": "[Sodium pantothenate, sodium pantothenate]", "values": [{"measurement": "inactivation of the mutagenicity of methylglyoxal", "setting": "[3]; 18 mols of sodium pantothenate added to 1 mol of methylglyoxal", "result": 77, "unit": "%"}, {"measurement": "inactivation of the mutagenicity of adriamycin", "setting": "[3]; 2273 mols of sodium pantothenate added to 1 mol of adriamycin", "result": 59, "unit": "%"}, {"measurement": "inactivation of the mutagenicity of AF-2", "setting": "[3]; 6250 mols of sodium pantothenate added to 1 mol of AF-2", "result": 58, "unit": "%"}]}, {"molecule": "calcium pantothenate", "values": [{"measurement": "inactivation of the mutagenicity of MNU", "setting": "[3]; 6 mols of calcium pantothenate added to 1 mol of MNU", "result": "completely"}, {"measurement": "inactivation of the mutagenicity of MNNG", "setting": "[3]; 73 mols of calcium pantothenate added to 1 mol of MNNG", "result": 48, "unit": "%"}]}]}
